From patent US4758560A, “Phenyl-(3-hexamethyleneiminopropyl)-ketone” (priority 1985, dated 1988)
Where two headings read alike, the source gives them in different places.

Columns and labels:
femoral artery [1] = experiment: Comparative assays: femoral vasodilating action (MVD) in nembutal-anesthetized dogs, I.D. route; type: in vivo; set-up: key to MVD (minimum dose inducing a femoral vasodilating action): (g): no vasodilating action per I.D. route; conditions: for minimal effective dose: Canis lupus familiaris, intraduodenal, read-out: MVD (minimum dose inducing in nembutal-anesthetized dogs a femoral vasodilating action); for therapeutical index (MVD/LD50 ratio): MVD I.D. dogs / LD50 I.V. mice
Text: (e) minimum dose inducing in nembutalanesthetized dogs a femoral
vasodilating action (tested products being administered per I.D. route).

in vivo = conditions: mouse, iv, LD-50 I.V. mice
isoprenaline = experiment: Effects of isoprenaline after CRL 41 339 in anesthetized dogs; type: in vivo
Procedure: (§1) The study of the cardiovascular properties has been performed on nembutal-anesthetized dogs, CRL 41 339 being administered intra-duodenallyin solution in physiological saline (bidistilled water containing 9 g/l of NaCl) at pH 7.5 (the maximum concentration of CRL 41 339 used being of 32.4 mg/ml).
(§2) Three dogs (average weight: 14.3 kg), anesthetized with nembutal, receive CRL 41 339 by intraduodenal administration at successive doses of 0.1 mg/kg, 0.5 mg/kg, 1 mg/kg, 2.5 mg/kg, 5 mg/kg and 10 mg/kg, then two of these dogs receive a supplemental dose of CRL 41 339 (10 mg/kg) by intravenous administration.
(§3) The arterial blood pressure, the heart rate, the blood flow through the femoral artery, the blood flow through the vertebral artery and the rectal and cutaneous temperatures are measured.
with 1 μg/kg of isoprenaline, the diastolic blood pressure changes from 117 mm Hg (i.e. about 1.5×10^4 Pa) to 37 mm Hg (i.e. about 4.9×10^3 Pa) after CRL 41 339, instead of changing from 144 mm Hg (i.e. about 1.9×10^4 Pa) to 36 mm Hg (i.e. about 4.8×10^3 Pa) in the control animals (i.e. anesthetized dogs receiving only isoprenaline), and the heart rate changes from 175 beats/minute to 238 beats/minute after CRL 41 339, while in the control animals said heart rate increases from 188 beats/minute to 253 beats/minute.

[2] = system: rabbit ear microcirculation; experiment: Action on rabbit ear microcirculation; type: in vivo; conditions: gastric route, awakened Half Top rabbits
Procedure: […] in an aqueous solution at pH 6.5 (prepared extemporaneously) is administered by gastric route to Half Top rabbit batches (3 males, average weight: […]; and 3 females, average weight 3.3 kg) under a volume of 2 ml/kg. The very same animals used as control animals against themselves receive distilled water per gastric route, under the very same volume. The following parameters are measured: the terminal arteriole diameter, the terminal veinule diameter, the arteriolar pulsatility, the ear cutaneous temperature, the heart rate and the rectal temperature.

external saphenous vein = experiment: Action on isolated dog vessels: external saphenous vein; conditions: n=4
Procedure: (§4) Annuli of femoral arteriae and external saphenous veins of nembutal-anesthetized dogs are cut off and placed into aerated (O2 : 96%; CO2 : 4%, by volume) Krebs-Henseleit, kept at 37° C. and subjected to a 0.5 g stretching. These vessels are constricted either with noradrenaline 10^-5 M in the presence of propanolol 10^-6 M, or with KCl 50 mM in the presence of phentolamine 3×10^-6 M. CRL 41 339 is tested at accumulated doses.

femoral artery [3] = experiment: Comparison of salts: femoral artery flow in nembutal-anesthetized dogs, I.A. route; type: in vivo; conditions: Ex 1 at pH 6, Ex 2 and Ex 3 at pH 4, dose 0: 64, 64, 79, average of 5 assays
Procedure: Three dogs anesthetized with nembutal and having an average weight of 12.9 kg are used as control animals vis-a-vis themselves, and are administered per I.A. route in the femoral artery with phenyl-(3-hexamethyleneiminopropyl)-ketone hydrochloride, fumarate and citrate (Ex 1, Code No.: CRL 41 339; Ex 2, Code No.: CRL 41 339A; and respectively Ex 3, code No.: CRL 41 339B), at equimolar doses.

Solubility in water = type: physicochemical; conditions: white powder, very soluble in water
[4] = system: perfused hind quarters of rats; experiment: Action on perfused hind quarters of rats; type: in vivo
[5] = system: nembutal-anesthetized dogs; experiment: Cardiovascular study in nembutal-anesthetized dogs, intraduodenal administration (then I.V.); type: in vivo; conditions: for minimal effective dose: Canis lupus familiaris, intraduodenal
Procedure: as §1, §2, §3

mice [6] = system: mice
adult human beings = experiment: Clinical assays in adult human beings; type: in vivo; conditions: arteritis manifestations and ulcers of arterial or venous origin in lower limbs
Text: In clinical trials, good results were obtained on adult human beings after administration of CRL 41 339 as vasodilating agent, in particular in the treatment of (i) arteritis manifestations in lower limbs, and (ii) ulcers of arterial or venous origin in lower limbs.

noradrenaline = experiment: Noradrenaline-induced hypertension after CRL 41 339 in anesthetized dogs; type: in vivo; conditions: for systolic blood pressure with noradrenaline: 2 μg/kg noradrenaline after 19.1 mg/kg I.D. accumulated; for systolic blood pressure before noradrenaline: after 19.1 mg/kg I.D. accumulated
Procedure: as §1, §2, §3
It is also observed that the noradrenaline-induced hypertension is reduced by CRL 41 339 (at an accumulated dose of 19.1 mg/kg I.D.):
with 2 μg/kg of noradrenaline the systolic blood pressure increases from 160 mm Hg (i.e. about 2.1×10^4 Pa) to 253 mm Hg (i.e. about 3.3×10^4 Pa) after administration of CRL 41 339 at an accumulated dose of 19.1 mg/kg I.D., while in the control animals, (anesthetized dogs receiving only noradrenaline) the blood systolic pressure increases from 181 mm Hg (i.e. about 2.4×10^4 Pa) to 301 mm Hg (i.e. about 4×10^4 Pa).

mice [7] = experiment: Toxicity in mice, intraperitoneal route; type: in vivo
femoral artery [8] = experiment: Action on isolated dog vessels: femoral artery; conditions: n=5
Procedure: as §4

[9] = after accumulated dose of 19.1 mg/kg I.D.
[10] = KCl 50 mM with phentolamine 3×10^-6 M
[11] = noradrenaline 10^-5 M with propanolol 10^-6 M
[12] = nembutal-anesthetized, noradrenaline-constricted
[13] = 10 mg/kg I.V., supplemental to I.D. doses

## COc1cc(OC)c(C(=O)CCCN2CCCC2)c(OC)c1.Cl [A-1, (2,4,6-trimethoxyphenyl)-(3-pyrrolidinopropyl)-ketone hydrochloride]
Femoral artery [1]; dogs, I.D. route
  minimal effective dose: 6 mg/kg
Femoral artery [1]
  therapeutical index (MVD/LD50 ratio): 0.100
In vivo
  LD50: 60 mg/kg

## COc1cc(OC)c(C(=O)CCCN2CCCCCC2)c(OC)c1.Cl [A-2, (2,4,6-trimethoxyphenyl)-(3-hexamethyleneiminopropyl)-ketone hydrochloride]
Femoral artery [1]; dogs, I.D. route
  minimal effective dose: 5 mg/kg
Femoral artery [1]
  therapeutical index (MVD/LD50 ratio): 0.053
In vivo
  LD50: 96 mg/kg

## COc1cc(OC)c(C(=O)CCCN2CCCCC2)c(OC)c1 [A-3]
Femoral artery [1]; dogs, I.D. route
  MVD (minimum dose inducing a femoral vasodilating action): (g)

## Cl.O=C(CCCN1CCCCCC1)c1ccccc1 [Ex 1, phenyl-(3-hexamethyleneiminopropyl)-ketone hydrochloride]
isoprenaline; 1 μg/kg isoprenaline after CRL 41 339 (19.1 mg/kg I.D. accumulated), controls 36
  diastolic blood pressure with isoprenaline: 37 mm Hg
isoprenaline; 1 μg/kg isoprenaline after CRL 41 339 (19.1 mg/kg I.D. accumulated), controls 253
  heart rate with isoprenaline: 238 beats/minute
isoprenaline; 1 μg/kg isoprenaline after CRL 41 339 (19.1 mg/kg I.D. accumulated), controls about 4.8×10^3 Pa
  diastolic blood pressure with isoprenaline: about 4.9×10^3 Pa
isoprenaline; after CRL 41 339 (19.1 mg/kg I.D. accumulated), controls 144
  diastolic blood pressure before isoprenaline: 117 mm Hg
isoprenaline; after CRL 41 339 (19.1 mg/kg I.D. accumulated), controls 188
  heart rate before isoprenaline: 175 beats/minute
isoprenaline; after CRL 41 339 (19.1 mg/kg I.D. accumulated), controls about 1.9×10^4 Pa
  diastolic blood pressure before isoprenaline: about 1.5×10^4 Pa
isoprenaline; [9]
  effects of isoprenaline as regards the diastolic blood pressure: not modified
  effects of isoprenaline as regards the heart rate: slightly reduced
[2]
  arteriolar pulsatility: stronghly increases
  arteriolar pulsatility/heart rate ratio: stronghly increases
  duration of terminal arteriole dilation: 0.5 h
  ear cutaneous temperature: important and lasting increase
  heart rate: without modifying the heart rate
  terminal arteriole diameter: moderately dilates
  veinular diameter: no action
External saphenous vein; Canis lupus familiaris, noradrenaline 10^-5 M with propanolol 10^-6 M, read-out: CI-50 (molar concentration which reduces of 50% the contraction), vein
  IC50: 130 µM
External saphenous vein; [10]
  action on external saphenous vein constriction induced by KCl: no action
External saphenous vein; [11]
  action on vein constricted by noradrenaline: slakening
Salmonella typhimurium
  mutagenic activity: devoid of mutagenic activity
Femoral artery [3]; dose 10^-5 M
  Femoral flow: 166 mL/min
Femoral artery [3]; dose 10^-6 M
  Femoral flow: 117 mL/min
Femoral artery [3]; dose 10^-7 M
  Femoral flow: 83 mL/min
Solubility in water
  solubility: 100 mg/mL
[4]; believed to be involved in the vasodilating activity
  anti-noradrenaline activity: important anti-noradrenaline activity
[4]; [12]
  duration of vasodilating effect: increases with the dose
  vasodilating effect on hind quarters of rats: important vasodilating effect
[5]; [13]
  blood pressure effect of supplemental I.V. dose: hypotension
  heart rate effect of supplemental I.V. dose: bradycardia
[5]; I.D., accumulated dose, read-out: accumulated dose as from which femoral artery flow is highly increased
  minimal effective dose: 4.1 mg/kg
[5]; I.D., single successive dose, read-out: dose as from which femoral artery flow is highly increased
  minimal effective dose: 2.5 mg/kg
[5]; I.D. route
  blood arterial pressure: does not modify
  heart beat: does not modify
  respiration rate: reduces the respiration rate
[5]; I.D., as from the dose of 2.5 mg/kg (accumulated 4.1 mg/kg)
  femoral artery flow: highly increases
Mice [6]; mouse, in vivo
  superiority as regards toxicity: superiority
Mice [6]; vs LL 1656 and CRL 41 080
  toxicity compared with reference compounds: less toxic
Femoral artery [1]; I.D. route, vs LL 1656 and CRL 41 080
  vasodilating activity compared with reference compounds: more active as a vasodilating substance per introduodenal route
Femoral artery [1]
  therapeutical index (MVD/LD50 ratio): 0.032
Femoral artery [1]; vs A-1, A-2, A-3
  superiority as regards peripheral vasodilating activity: superiority
In vivo
  LD50: 128 mg/kg
Adult human beings
  clinical trials, as vasodilating agent: good results
noradrenaline; controls 301
  systolic blood pressure with noradrenaline: 253 mm Hg
noradrenaline; controls about 4×10^4 Pa
  systolic blood pressure with noradrenaline: about 3.3×10^4 Pa
noradrenaline; accumulated dose of 19.1 mg/kg I.D.
  noradrenaline-induced hypertension: reduced
noradrenaline; controls 181
  systolic blood pressure before noradrenaline: 160 mm Hg
noradrenaline; controls about 2.4×10^4 Pa
  systolic blood pressure before noradrenaline: about 2.1×10^4 Pa
Mice [7]
  LD-30 (lethal dose for 30% of the treated animals): about 128 mg/kg
  LD-100 (minimum lethal dose for all the treated animals): ≤ 256 mg/kg
  LD-O (maximum non-lethal dose): higher than 64 mg/kg
Femoral artery [8]; Canis lupus familiaris, noradrenaline 10^-5 M with propanolol 10^-6 M, read-out: CI-50 (molar concentration which reduces of 50% the contraction), artery
  IC50: 5.9 µM
Femoral artery [8]; [10]
  action on femoral artery constriction induced by KCl: no action
Femoral artery [8]; [11]
  action on artery constricted by noradrenaline: slakening

## O=C(CCCN1CCCCCC1)c1ccccc1.O=C(O)/C=C/C(=O)O [Ex 2, phenyl(3-hexamethyleneiminopropyl)-ketone fumarate]
Femoral artery [3]; dose 10^-5 M
  Femoral flow: 168 mL/min
Femoral artery [3]; dose 10^-6 M
  Femoral flow: 117 mL/min
Femoral artery [3]; dose 10^-7 M
  Femoral flow: 76 mL/min

## O=C(CCCN1CCCCCC1)c1ccccc1.O=C(O)CC(O)(CC(=O)O)C(=O)O [Ex 3, phenyl(3-hexamethyleneiminopropyl)-ketone citrate]
Femoral artery [3]; dose 10^-5 M
  Femoral flow: 197 mL/min
Femoral artery [3]; dose 10^-6 M
  Femoral flow: 127 mL/min
Femoral artery [3]; dose 10^-7 M
  Femoral flow: 90 mL/min
